IC50 data for 13 compounds are collected here from patent publication US9481670B2, “Triazine compounds” (Sphaera Pharma PTE. Ltd., priority 2011, dated 2016).

pIC50: −log10 of the molar value.

T1 sequence (P42336 whole entry): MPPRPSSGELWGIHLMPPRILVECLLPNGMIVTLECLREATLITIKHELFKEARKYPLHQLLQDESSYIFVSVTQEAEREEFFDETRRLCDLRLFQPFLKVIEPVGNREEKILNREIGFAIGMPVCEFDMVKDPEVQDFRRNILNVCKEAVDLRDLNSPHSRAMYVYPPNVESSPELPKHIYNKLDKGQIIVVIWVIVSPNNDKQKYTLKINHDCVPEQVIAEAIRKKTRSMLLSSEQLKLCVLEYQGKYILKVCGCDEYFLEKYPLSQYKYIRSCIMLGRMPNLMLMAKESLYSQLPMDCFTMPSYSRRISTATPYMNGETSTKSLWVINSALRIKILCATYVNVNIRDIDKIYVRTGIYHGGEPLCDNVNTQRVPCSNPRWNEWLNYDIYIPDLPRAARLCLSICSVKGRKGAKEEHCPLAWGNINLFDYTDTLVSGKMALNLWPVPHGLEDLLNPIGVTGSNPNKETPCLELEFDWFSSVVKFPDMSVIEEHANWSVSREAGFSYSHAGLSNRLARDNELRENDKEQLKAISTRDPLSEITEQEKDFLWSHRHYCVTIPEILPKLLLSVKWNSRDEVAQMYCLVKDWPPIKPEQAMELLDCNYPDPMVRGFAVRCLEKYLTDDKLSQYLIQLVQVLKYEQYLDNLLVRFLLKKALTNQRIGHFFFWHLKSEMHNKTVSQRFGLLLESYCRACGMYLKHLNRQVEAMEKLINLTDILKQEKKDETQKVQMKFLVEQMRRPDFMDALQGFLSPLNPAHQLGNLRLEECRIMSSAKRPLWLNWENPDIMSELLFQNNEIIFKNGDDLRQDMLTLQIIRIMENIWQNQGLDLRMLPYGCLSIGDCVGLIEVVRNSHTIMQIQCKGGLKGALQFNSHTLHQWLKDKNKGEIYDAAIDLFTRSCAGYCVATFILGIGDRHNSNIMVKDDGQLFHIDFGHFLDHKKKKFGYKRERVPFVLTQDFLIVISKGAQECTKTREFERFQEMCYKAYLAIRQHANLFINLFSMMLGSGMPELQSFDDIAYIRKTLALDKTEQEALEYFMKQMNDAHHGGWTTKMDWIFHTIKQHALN
T1 sequence (P27986 whole entry partner): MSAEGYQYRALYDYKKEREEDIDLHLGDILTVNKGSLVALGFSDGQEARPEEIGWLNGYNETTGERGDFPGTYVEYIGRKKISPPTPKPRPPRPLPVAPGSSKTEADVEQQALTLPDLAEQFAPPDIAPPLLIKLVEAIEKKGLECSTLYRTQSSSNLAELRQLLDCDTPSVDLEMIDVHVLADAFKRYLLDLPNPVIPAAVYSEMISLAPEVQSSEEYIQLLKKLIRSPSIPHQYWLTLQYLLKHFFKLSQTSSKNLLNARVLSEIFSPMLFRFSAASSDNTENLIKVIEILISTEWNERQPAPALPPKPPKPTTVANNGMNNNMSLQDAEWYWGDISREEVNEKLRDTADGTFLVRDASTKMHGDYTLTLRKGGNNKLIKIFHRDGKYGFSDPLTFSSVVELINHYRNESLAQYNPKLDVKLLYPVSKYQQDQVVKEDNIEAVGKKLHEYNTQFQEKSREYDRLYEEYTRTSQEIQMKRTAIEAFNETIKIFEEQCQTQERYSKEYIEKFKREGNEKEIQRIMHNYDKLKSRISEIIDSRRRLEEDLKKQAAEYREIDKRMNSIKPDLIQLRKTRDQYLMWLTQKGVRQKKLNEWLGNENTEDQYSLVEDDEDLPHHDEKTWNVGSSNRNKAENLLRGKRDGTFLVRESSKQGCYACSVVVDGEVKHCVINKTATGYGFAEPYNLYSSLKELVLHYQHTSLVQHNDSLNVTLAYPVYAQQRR

The experiment has as its target T1, PI3K alpha (Homo sapiens, UniProt P42336).
T1 construct: purchased Millipore Upstate
Description: P110 Alpha TR-FRET Assay (PI3K alpha kinase assay, HTRF Transcreener ADP Assay). It counts as biochemical. Particulars: PI3K (WT). An outline of the steps: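 HTRF Transcreener ADP read-out of ADP formed by PI3K (50 ng enzyme) in 50 mM HEPES pH 7.5, 5 mM MgCl2, 1 mM DTT, 30 μM Na3VO4. Compound preincubated with enzyme 20 min; reaction started with 10 μM ATP and 5 μM PIP2, run 20 min, then ADP-d2/anti-ADP cryptate detection for 1 h.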
On to `CN(C)C(=O)c1cccc(Oc2nc(-c3cccc4[nH]ncc34)nc(N3CCOCC3)n2)c1` [Compound 1088, 3-22-{[4-1-(1H-indazol-4-yl)-6-5-(morpholin-4-yl)-1,3,5-triazin-2-yl]oxy}-N,N-dimethylbenzamide], for which the negative-log IC50 (pIC50) (commonly −log10 of the IC50, conventionally taken in molar units) was more than 5.30.
The result for `CS(=O)(=O)N1CCN(C(=O)CNc2nc(-c3cccc(O)c3)nc(N3CCOCC3)n2)CC1` [Compound 1089, 2-((4-(3-hydroxyphenyl)-6-morpholino-1,3,5-triazin-2-yl)amino)-1-(4-(methylsulfonyl)piperazin-1-yl)ethanone] reads more than 5.30; that for `NC(=O)C(Cc1ccccc1)Nc1nc(-c2cccc(O)c2)nc(N2CCOCC2)n1` (stereo not shown) [Compound 1090, 2-((4-(3-hydroxyphenyl)-6-morpholino-1,3,5-triazin-2-yl)amino)-3-phenylpropanamide], more than 5.30.
The value for `CN(C)C(=O)N1CCCC(Oc2nc(-c3cccc4[nH]ncc34)nc(N3CCOCC3)n2)C1` (stereo not shown) [Compound 1091, 3-22-{[4-1-(1H-indazol-4-yl)-6-5-(morpholin-4-yl)-1,3,5-triazin-2-yl]oxy}-N,N-dimethylpiperidine-1-carboxamide] was more than 5.30; that for `NS(=O)(=O)Nc1ccc(Oc2nc(-c3cccc4[nH]ncc34)nc(N3CCOCC3)n2)cc1` [Compound 1092, N-(4-14-{[4-1-(1H-indazol-4-yl)-6-5-(morpholin-4-yl)-1,3,5-triazin-2-yl]oxy}phenyl)aminosulfonamide] was more than 5.30; that for `CS(=O)(=O)Nc1ccc(Oc2nc(-c3cccc4[nH]ncc34)nc(N3CCOCC3)n2)cc1` [Compound 1093, N-(4-14-{[4-1-(1H-indazol-4-yl)-6-5-(morpholin-4-yl)-1,3,5-triazin-2-yl]oxy}phenyl)methanesulfonamide] was more than 5.30.
Regarding `NS(=O)(=O)N[C@H]1CC[C@H](Oc2nc(-c3cccc4[nH]ncc34)nc(N3CCOCC3)n2)CC1` [Compound 1094, N-[(1r,4r)-4-9-{[4-1-(1H-indazol-4-yl)-6-5-(morpholin-4-yl)-1,3,5-triazin-2-yl]oxy}cyclohexyl]aminosulfonamide], the pIC50 was more than 5.30.
As for `CS(=O)(=O)N[C@H]1CC[C@H](Oc2nc(-c3cccc4[nH]ncc34)nc(N3CCOCC3)n2)CC1` [Compound 1095, N-[(1r,4r)-4-9-{[4-1-(1H-indazol-4-yl)-6-5-(morpholin-4-yl)-1,3,5-triazin-2-yl]oxy}cyclohexyl]methanesulfonamide], the pIC50 was more than 5.30.
`CS(=O)(=O)N1CCC(COc2nc(-c3cccc4[nH]ncc34)nc(N3CCOCC3)n2)CC1` [Compound 1096, 4-(4-(1H-indazol-4-yl)-6-((1-(methylsulfonyl)piperidin-4-yl)methoxy)-1,3,5-triazin-2-yl)morpholine]: the pIC50 is more than 5.30.
In the case of `CC1COCC(C)N1c1nc(Oc2ccc(C(=O)N(C)C)cc2)nc(-c2cccc3[nH]ncc23)n1` (stereo not shown) [Compound 1097, 4-9-{[4-5-(3-28,5-32-dimethylmorpholin-4-yl)-6-1-(1H-indazol-4-yl)-1,3,5-triazin-2-yl]oxy}-N,N-dimethylbenzamide], the pIC50 is more than 5.30.
Take `CC1COCCN1c1nc(Oc2ccc(C(=O)N(C)C)cc2)nc(-c2cccc3[nH]ncc23)n1` (stereo not shown) [Compound 1098, 4-9-{[4-1-(1H-indazol-4-yl)-6-5-(3-28-methylmorpholin-4-yl)-1,3,5-triazin-2-yl]oxy}-N,N-dimethylbenzamide]: the pIC50 is more than 5.30.
For `CN(C)C(=O)[C@H]1C[C@H](Oc2nc(-c3cccc4[nH]ncc34)nc(N3CCOCC3)n2)CN1C` [Compound 1099, (2R,4S)-4-14-{[4-1-(1H-indazol-4-yl)-6-5-(morpholin-4-yl)-1,3,5-triazin-2-yl]oxy}-N,N,1-trimethylpyrrolidine-2-carboxamide], the pIC50 was more than 5.30.
`CNC(=O)C(=O)Nc1ccc(Oc2nc(-c3cccc4[nH]ncc34)nc(N3CCOCC3)n2)cc1` [Compound 1100, N-(4-14-{[4-1-(1H-indazol-4-yl)-6-5-(morpholin-4-yl)-1,3,5-triazin-2-yl]oxy}phenyl)-N′-methylethanediamide] had a pIC50 of more than 5.30.
